From patent US20100234238A1, “METHOD FOR PROFILING KINASE INHIBITORS” (Janssen Pharmaceutica N V, priority 2006, published 2010)

Tests used:
[1] = system: tyrosine kinase activity in cell line lysates; test: Peptide array profiling of 9 cell line lysates in the presence of MTKI or Tarceva; assay type: biochemical; details: GTL16 lysates; 5 μM
Description: To test whether other EGFR inhibitors, related to MTKI, such as Tarceva (erlotinib; OSI pharmaceuticals), are also amenable to this response prediction methodology, 9 cell lines were profiled in the presence of MTKI, or Tarceva (5 μM in both cases). […] The value of the previously derived MTKI prediction peptides is illustrated in Tables 6A to C. Based on these peptides also response to Tarceva can be predicted with identical accuracy as for MTKI (and with the same false predictions, in casu H2009 and MOLT4).

[2] = system: cMet kinase activity in cell lysates; test: 140-tyrosine peptide array profiling of cell lysates with cMET inhibitor 605; assay type: biochemical; details: responder cell lysates; 1 μM compound
Text: To examine whether the currently available 140-tyrosine peptide arrays from Pamgene will also detect other kinase activities then those described above, another compound was profiled using the same methodology: this is an exquisitely selective inhibitor of the cMET receptor tyrosine kinase (see US2007 0203136 A1) and with formula: […]
(§1) As shown in Example 7, clear-cut differences in peptide phosphorylation inhibition by 605 could be identified in the responder lysates versus non-responder lysates. Note that the cMet signature peptide set features two peptides derived from Ron, the closest homologue to cMet. […] The 605 signature peptides show no overlap at all with the MTKI signature peptides set, consistent with the absence of any overlap in kinase specificity between MTKI and 605.

[3] = system: HGF-induced colony formation; test: HGF-induced colony formation (responsiveness to 605); assay type: cell-based; design: key: R = Responder to cMET; NR = Non-Responder to cMET
Ron kinase = Ron kinase (Homo sapiens, UniProt Q04912); test: Purified Ron kinase inhibition; assay type: biochemical; details: 1 μM
Text: as §1

Sequence of Ron kinase (Q04912 25-1400): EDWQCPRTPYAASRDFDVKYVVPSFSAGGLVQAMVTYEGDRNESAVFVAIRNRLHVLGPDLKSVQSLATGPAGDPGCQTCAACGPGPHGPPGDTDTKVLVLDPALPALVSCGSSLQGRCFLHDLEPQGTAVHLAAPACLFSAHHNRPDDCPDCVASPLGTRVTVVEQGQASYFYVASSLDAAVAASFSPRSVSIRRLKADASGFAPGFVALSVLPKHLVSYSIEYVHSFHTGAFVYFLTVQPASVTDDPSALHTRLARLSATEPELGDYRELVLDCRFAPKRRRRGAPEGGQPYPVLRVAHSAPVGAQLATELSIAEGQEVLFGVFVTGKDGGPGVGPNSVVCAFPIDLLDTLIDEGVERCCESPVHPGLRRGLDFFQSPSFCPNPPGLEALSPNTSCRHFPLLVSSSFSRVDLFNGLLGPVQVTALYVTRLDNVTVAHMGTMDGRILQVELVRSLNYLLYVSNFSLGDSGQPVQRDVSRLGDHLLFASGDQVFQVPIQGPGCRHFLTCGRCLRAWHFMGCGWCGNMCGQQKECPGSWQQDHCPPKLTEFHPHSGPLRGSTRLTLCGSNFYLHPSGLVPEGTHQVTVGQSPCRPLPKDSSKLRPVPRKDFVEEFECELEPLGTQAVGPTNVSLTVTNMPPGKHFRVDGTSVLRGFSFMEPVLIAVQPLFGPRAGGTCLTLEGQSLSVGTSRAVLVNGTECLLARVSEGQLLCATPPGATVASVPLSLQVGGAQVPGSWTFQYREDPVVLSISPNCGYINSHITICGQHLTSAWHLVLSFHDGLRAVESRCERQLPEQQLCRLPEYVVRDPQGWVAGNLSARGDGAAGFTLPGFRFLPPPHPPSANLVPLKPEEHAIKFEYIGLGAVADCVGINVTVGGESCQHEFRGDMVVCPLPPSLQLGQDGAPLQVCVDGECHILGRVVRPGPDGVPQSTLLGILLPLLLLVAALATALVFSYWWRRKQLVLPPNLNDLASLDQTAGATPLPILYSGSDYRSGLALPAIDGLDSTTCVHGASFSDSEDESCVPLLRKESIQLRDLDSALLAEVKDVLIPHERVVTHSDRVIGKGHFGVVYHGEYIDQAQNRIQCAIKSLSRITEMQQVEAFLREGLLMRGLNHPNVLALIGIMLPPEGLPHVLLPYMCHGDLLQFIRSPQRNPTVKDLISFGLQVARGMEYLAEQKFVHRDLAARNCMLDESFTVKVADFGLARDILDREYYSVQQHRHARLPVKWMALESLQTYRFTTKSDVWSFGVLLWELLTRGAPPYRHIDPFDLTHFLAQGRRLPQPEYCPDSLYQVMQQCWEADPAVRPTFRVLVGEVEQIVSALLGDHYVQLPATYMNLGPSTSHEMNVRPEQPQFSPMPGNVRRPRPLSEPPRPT

inhibition of purified Ron kinase (Ron kinase) | Compound | activity in lysate inhibition profile compared to MTKI [1] | inhibition of peptide phosphorylation [2] | response status ([3]; A549 cell line) | response status ([3]; Caco2 cell line) | response status ([3]; H322 cell line) | response status ([3]; H441 cell line) | response status ([3]; H1792 cell line) | response status ([3]; H2106 cell line) | response status ([3]; H2122 cell line) | response status ([3]; Kato2 cell line) | response status ([3]; MKN45 cell line) | response status ([3]; N87 cell line) | response status ([3]; SNU5 cell line) | response status ([3]; SNU484 cell line) | response status ([3]; WIDR cell line) | response status ([3]; YKG cell line)
– | C#Cc1cccc(Nc2ncnc3cc(OCCOC)c(OCCOC)cc23)c1 [Tarceva, reference compound] | additional activity | – | – | – | – | – | – | – | – | – | – | – | – | – | – | –
does not inhibit | Cn1cc(-c2ccc3nnc(C(F)(F)c4ccc5ncccc5c4)n3n2)cn1 [compound 605] | – | significant inhibition | NR | NR | NR | R | R | NR | NR | R | R | NR | R | NR | R | NR
